Test results as given in US11279695B2, “Andrographolide compound and method for treatment or prevention of fibrotic disease using the same” (Zhengzhou University, priority 2018, dated 2022).

Tests used:
[1] = test system: human renal proximal tubule epithelial cells HK-2; assay: In vitro cytotoxicity MTT assay on HK-2 cells; type: cell-based; conditions: 48 h, 30.00 μM equivalent dose, FIGS. 6A-6B
Experimental: HK-2 cells were cultured in a DMEM/F12 medium containing 10% (V/V) fetal bovine serum (FBS), 100 μg/mL streptomycin, and 100 IU/mL penicillin, followed by incubation at 37° C. in a humidified atmosphere with 5% CO2.
HK-2 cells in the logarithmic growth phase were digested with 0.25% (W/V) trypsin and 0.02% EDTA (W/V), diluted into 7.0×10^4 cell/mL cell suspension with DMEM/F12 medium containing 10% (V/V) FBS, and transferred into a 96-well plate for 200 μL per well. After incubation in the 37° C. incubator with 5% CO2 for 24 hours, the medium comprising different concentration of test compounds were added into the wells. Under these conditions, the maximum final drug concentration in the assay was 30.00 μM. The experiment was performed in triplicate. After further incubation for 48 hours, other steps were the same as Example 1.

[2] = test system: hepatic fibrosis in KM mice induced by bile duct ligation (BDL); assay: Hepatic fibrosis in KM mice induced by bile duct ligation (BDL); type: in vivo; conditions: 10 days, scale 0-6
Experimental: SPF grade KM mice, healthy, male, with a body weight of 20±2 g, were purchased from Henan Experimental Animal Center. (License No. SOCK (Yu) 2017-0001).
After KM mice were fed ad libitum for 3 days, they were randomly divided into multiple groups including a sham-operated control group, a model group, an AD control group, and different compound-administered groups, six mice per group. The sham operation group and the model group were administered with 0.5% Sodium CMC (Na CMC) via gavage, and the other administration groups were administered 0.5% CMC-Na suspension of the corresponding drug, and the administration lasted for 10 days. Mice should be strictly fasting with nothing but water 12 hours prior to surgery. The mice were anesthesia by intraperitoneally injecting with 0.5% sodium pentobarbital. After limb immobilization in a supine position, the anesthetized mice were prepared. The abdomen of the mice was shaved and then swabbed with iodine to sterilize the skin regions. After spreading of surgery cloth, the abdomen was opened along the abdominal wall in the midline. The duodenum was found along the stomach, then pull upwards to just separate from the common bile duct. Double-ligated with 4/0 silk thread and disconnected the common bile duct with a distance of 0.5 cm away from the hepatic hilum. Following the examination for no bleeding and bile leakage, the 3/0 silk thread continuous suture method was used to close the abdomen layer by layer. The wound was swabbed with iodine, and the mice rest in a 37° C. warm environment until the animals were fully awake. […] Drugs were administrated by gavage on an empty stomach in the morning every day, and were given daily for 10 days. The liver was quickly excised after blood collection. The collected blood was allowed to stand in an incubator 37° C. for 45 min, and then the upper serum was collected by centrifugation at 3500 rpm for 15 min at 4° C. The liver of the lower left lobe of the mice was fixed in 10 times volume of 4% paraformaldehyde fixative, and the fixative was changed after 24 h. Pathological sections were obtained after fixation. Each section was stained with hematoxylin-eosin stain (HE) and Sirius red to observe fibrosis levels and pathological change in the liver. […] Collagen deposition was measured with Sirius red staining, and positive expression was semi-quantitatively analyzed by Image-Pro Plus. […]

[3] = test system: silica-induced pulmonary fibrosis in KM mice; assay: Silica-induced pulmonary fibrosis in KM mice; type: in vivo; conditions: AD at equivalent dose (40 or 120 mg/kg) ig 21 days
Experimental: SPF grade KM mice, healthy, male, with a body weight of 20±2 g, were purchased from Henan Experimental Animal Center. (License No. SOCK (Yu) 2017-0001). Silica was heated at 250° C. for 1 hour to remove endotoxin. After autoclaving the heated silica was suspended in physiological saline to yield a final concentration of 75 mg/mL suspension, and stored at 4° C. for use. The suspension was shaken and sonicated for 30 minutes prior to injection.
After mice were fed ad libitum for 3 days, they were randomly divided into six groups including a sham-operated control group, a model group, different groups of the compounds of the disclosure, eight mice per group. The mice were anesthetized with intraperitoneal injection of 0.5% sodium pentobarbital (50 mg/kg). After the immobilization in a supine position, the anesthetized mice were prepared. The neck of the mice was shaved and then swabbed with iodine to sterilize the skin regions. An incision with a length of about 1 cm was made along the neck for separating bronchus. A silica suspension proportional (150 mg/kg) to the body weight, and 100 μL of air was immediately injected into the trachea through the cartilage space of mice. After the muscle was reset, the mice were quickly rotated for 2 minutes to evenly distribute the silica. […] Mice lung was collected, weighed and the pulmonary lesion was measured. […]

[4] = 15 mg/kg ig, model group mean score 4.25

Row | Structure (SMILES) | inhibitory effect on proliferation of HK-2 cells compared with AD [1] | further results
1 | CC1=CCC2C(C)(CO)C(O)CCC2(C)C1C=CC1=CC(=Cc2ccc(F)c(F)c2)OC1=O (centres unmarked) [ADC-6] | higher inhibitory effect on proliferation of HK-2 cells than the parent compound AD | 
2 | COc1ccc(C=C2C=C(C3CC4C5CCC(O)C(C)(CO)C5CCC4(C)O3)C(=O)O2)cc1 (centres unmarked) [ADY-12] |  | fibrosis pathological score for liver tissue section (mean) [2, 4]: 1.4
3 | COc1cccc(C=C2C=C(C3CC4C5CCC(O)C(C)(CO)C5CCC4(C)O3)C(=O)O2)c1 (centres unmarked) [ADY-7] |  | fibrosis pathological score for liver tissue section (mean) [2, 4]: 0.4
4 | CC1=CCC2C(C)(CO)C(O)CCC2(C)C1C=CC1=CC(=Cc2ccccc2O)OC1=O (centres unmarked) [ADC-12] | higher inhibitory effect on proliferation of HK-2 cells than the parent compound AD | 
5 | CC12CCC3C(CCC(O)C3(C)CO)C1CC(C1=CC(=Cc3ccc(Br)cc3)OC1=O)O2 (centres unmarked) [ADY-2] | higher inhibitory effect on proliferation of HK-2 cells than the parent compound AD | 
6 | CC1=CCC2C(C)(CO)C(O)CCC2(C)C1C=CC1=CC(=Cc2ccc(F)cc2)OC1=O (centres unmarked) [ADC-5] | higher inhibitory effect on proliferation of HK-2 cells than the parent compound AD | 
7 | COc1ccc(C=C2C=C(C=CC3C(C)=CCC4C(C)(CO)C(O)CCC34C)C(=O)O2)cc1 (centres unmarked) [ADC-11] | higher inhibitory effect on proliferation of HK-2 cells than the parent compound AD | 
8 | CC12CCC3C(CCC(O)C3(C)CO)C1CC(C1=CC(=Cc3ccc(F)c(F)c3)OC1=O)O2 (centres unmarked) [ADY-6] | higher inhibitory effect on proliferation of HK-2 cells than the parent compound AD | 
9 | C=C1CC[C@@H]2[C@](C)(CO)[C@H](O)CC[C@@]2(C)[C@@H]1C/C=C1/C(=O)OC[C@H]1O [AD, andrographolide] | lower inhibitory activity against the cell proliferation | fibrosis pathological score for liver tissue section (mean) ([2]; 15 mg/kg ig, model group mean score 4.8): 2.83; fibrosis pathological score for liver tissue section (mean) ([2]; 40 mg/kg ig, model group mean score 4.8): 2.10; pulmonary fibrosis score [3]: 3.8-4.9
10 | CC12CCC3C(CCC(O)C3(C)CO)C1CC(C1=CC(=Cc3ccc(O)cc3)OC1=O)O2 (centres unmarked) [ADY-8] | higher inhibitory effect on proliferation of HK-2 cells than the parent compound AD | 
11 | CC12CCC3C(CCC(O)C3(C)CO)C1CC(C1=CC(=Cc3ccccc3)OC1=O)O2 (centres unmarked) [ADY-5] | higher inhibitory effect on proliferation of HK-2 cells than the parent compound AD | 
